Common to all, as to type: cell-based
Assay [1] concerns MCF-7 breast cancer cells. Nature of the assay: Cell cycle assay (Example 164), G2/M block in MCF-7 cells. To be noted: for activation at 0.1 µM / IC50: Homo sapiens, MCF7; for activation at 0.1 µM: Table 4; for IC50: MCF-7, footnotes * and ** of Table 4, read-out: IC50 (footnote mark in column MCF-7 G2/M Block). The protocol:
(§1) The adherent MCF-7 breast cancer cells and NCI-H522 non small cell lung cancer cells were grown and maintained in EMEM cell culture media containing 10% fetal calf serum.
(§2) Cells were allowed to adhere for 24 hrs. After adherence, cell culture media was changed to that containing 0.5% FCS. Thirty minutes post-media change, test compounds were added at a concentration of either 1.0 or 0.1 μM (as specified in the Tables). Twenty-four hours after test agent addition, cells were analyzed for cell cycle status as described below.
(§3) Cell cycle status was analyzed by flow cytometry. Briefly, cells were collected and washed with FACs buffer (Pharmingen) and resuspended and fixed in 1 mL of 80% ethanol for 1 hr. Cells were washed with FACs buffer and resuspended in propidium iodide(PI)/RNase staining buffer (Pharmingen). PI is a fluorescent dye that labels nucleic acids such as DNA. The fluorescence within a cell (in the presence of PI) is proportional to the amount of DNA within a cell. The cell content of DNA is an indicator of status in the cell cycle. […] Cells in the S phase have DNA content that lies between these extremes.
(§4) For testing of cell cycle effects of test agents the percentage of cells within the G1 and G2/M phase were measured.

Assay [2] relates to NCI-H522 non small cell lung cancer cells. Kind of assay: Cell cycle assay (Example 164), G2/M block in NCI-H522 cells. The settings on record: Homo sapiens; for activation at 0.1 µM: 24 h, flow cytometry (PI); for IC50: H522, footnotes * and ** of Table 4, read-out: IC50 (footnote mark in H522 G2/M Block). On the procedure:
as §1, §2, §3, §4
In general terms: Flow cytometry measures light scatter and fluorescence of single cells or particles in a stream.

Assay [3] has as its system Jurkat T-cell leukemic cells. Nature of the assay: Cell cycle assay (Example 163), G2/M block in Jurkat cells. The settings on record: Homo sapiens, Jurkat, 24 h, flow cytometry (PI), Table 2. On the procedure: (§5) MCF-7 breast cancer cells and Jurkat T-cell leukemic cells were grown (and maintained) in EMEM and RPMI media, respectively, containing 10% fetal calf serum.
Test agents were added a concentration of 0.1 μM. Twenty-fours after test agent addition, cells were analyzed for cell cycle status as described below.
as §3, with “indices” for “indicator”
as §4

Assay [4] relates to MCF-7 breast cancer cells. Kind of assay: Cell cycle assay (Example 163), G2/M block in MCF-7 cells. The settings on record: Homo sapiens, MCF7, 24 h, flow cytometry (PI), Table 2. The protocol: as §5
Cells were allowed to adhere for 24 hrs. After adherence, cell culture media was changed to that containing 0.5% FCS. Thirty minutes post-media change, test compounds were added at a concentration of 1 μM. Twenty-fours after test agent addition, cells were analyzed for cell cycle status as described below.
as §3, with “indices” for “indicator”
as §4

The results in this text go back to patent US20080280891A1, “Anti-cancer agents and uses thereof” (Locus Pharmaceuticals, Inc., priority 2006, published 2008).

Molecules are shown by their SMILES.

Consider `COC(=O)Nc1cc(C(=O)c2cc(C)nc(N3CCOCC3)c2)cc(-c2cccc3[nH]ccc23)c1` [[3-(1H-Indol-4-yl)-5-(2-methyl-6-morpholin-4-yl-pyridine-4-carbonyl)-phenyl]-carbamic acid methyl ester], for which the activation at 0.1 µM was at least 50% in assay [1] (24 h, flow cytometry (PI)) and at least 50% in assay [2] (Table 4).
For `CN(C)c1cc(C(=O)c2cc(NS(C)(=O)=O)cc(-c3cccc4[nH]ccc34)c2)ccn1` [N-[3-(2-Dimethylamino-pyridine-4-carbonyl)-5-(1H-indol-4-yl)-phenyl]-methanesulfonamide], the activation at 0.1 µM was at least 50% in assay [1] (24 h, flow cytometry (PI)) and at least 50% in assay [2] (Table 4).
On to `COc1ccc(-c2cc(NS(C)(=O)=O)cc(-c3cccc4[nH]ccc34)c2)cn1` [N-[3-(1H-Indol-4-yl)-5-(6-methoxy-pyridin-3-yl)-phenyl]-methanesulfonamide], for which the activation at 0.1 µM in assay [1] (24 h, flow cytometry (PI)) was at least 50%; in assay [2] (Table 4) it was at least 50%.
For `COC(=O)Nc1cc(C(=O)c2ccnc(OC)c2)cc(-c2cccc3occc23)c1` [[3-Benzofuran-4-yl-5-(2-methoxy-pyridine-4-carbonyl)-phenyl]-carbamic acid methyl ester], the activation at 0.1 µM in assay [1] (24 h, flow cytometry (PI)) was below 50%; in assay [2] (Table 4), below 50%. The IC50 in assay [1] and in assay [2] was 500 to 5000 nM throughout.
For `COc1cc(C(=O)c2cc(NS(C)(=O)=O)cc(-c3cccc4[nH]ccc34)c2)ccn1` [N-[3-(1H-Indol-4-yl)-5-(2-methoxy-pyridine-4-carbonyl)-phenyl]-methanesulfonamide], the “MCF-7 G2/M Block 1 μM” value in assay [1] (1 μM, 24 h, flow cytometry (PI), Table 3) is listed as “Y (Y indicates a 50% or greater increase in the number of cells in the G2/M phase, as compared to control)”. The compound also showed an activation at 0.1 µM in assay [2] (Table 3) of at least 50%.
Regarding `CC(=O)Nc1cc(-c2ccc(C(F)(F)F)cc2)cc(-c2cccc3[nH]ccc23)c1` [N-[5-(1H-Indol-4-yl)-4′-trifluoromethyl-biphenyl-3-yl]-acetamide], the activation at 0.1 µM in assay [1] (24 h, flow cytometry (PI)) is below 50%; in assay [2] (Table 4), below 50%. Besides, the IC50 in assay [1] and in assay [2] was 100 to 1000 nM in each case.
`CS(=O)(=O)Nc1cc(-c2cccc([N+](=O)[O-])c2)cc(-c2cccc3[nH]ccc23)c1` [N-[5-(1H-indol-4-yl)-3′-nitro-biphenyl-3-yl]-methanesulfonamide]: the activation at 0.1 µM in assay [1] (24 h, flow cytometry (PI)) was at least 50%; in assay [2] (Table 4), at least 50%.
With `CS(=O)(=O)Nc1cc(C(=O)c2ccnc(N3CCCCC3)c2)cc(-c2cccc3[nH]ccc23)c1` [N-[3-(1H-Indol-4-yl)-5-(3,4,5,6-tetrahydro-2H-[1,2′]bipyridinyl-4′-carbonyl)-phenyl]-methanesulfonamide], the activation at 0.1 µM in assay [1] (24 h, flow cytometry (PI)) was below 50%; in assay [2] (Table 4) it was at least 50%.
In the case of `Cc1cccc(-c2cc(NS(C)(=O)=O)cc(-c3cccc4[nH]ccc34)c2)c1` [N-[5-(1H-Indol-4-yl)-3′-methyl-biphenyl-3-yl]-methanesulfonamide], the activation at 0.1 µM was at least 50% in assay [1] (24 h, flow cytometry (PI)) and at least 50% in assay [2] (Table 4).
Turning to `CS(=O)(=O)Nc1cc(-c2ccc(F)cc2F)cc(-c2cccc3[nH]ccc23)c1` [N-[5-(1H-Indol-4-yl)-2′,4′-difluoro-biphenyl-3-yl]-methanesulfonamide], the activation at 0.1 µM was below 50% in assay [1] (24 h, flow cytometry (PI)) and at least 50% in assay [2] (Table 4).
Regarding `CC(=O)Nc1cc(C(=O)c2cc(C)nc(N(C)C)c2)cc(-c2cccc3[nH]ccc23)c1` [N-[3-(2-Dimethylamino-6-methyl-pyridine-4-carbonyl)-5-(1H-indol-4-yl)-phenyl]-acetamide], the activation at 0.1 µM is at least 50% in assay [1] (24 h, flow cytometry (PI)) and at least 50% in assay [2] (Table 4).
Consider `COC(=O)Nc1cc(-c2ccc(OC)nc2)cc(-c2cccc3[nH]ccc23)c1` [[3-(1H-Indol-4-yl)-5-(6-methoxy-pyridin-3-yl)-phenyl]-carbamic acid methyl ester], for which the activation at 0.1 µM in assay [1] (24 h, flow cytometry (PI)) was below 50%; in assay [2] (Table 4) it was at least 50%. In addition, the IC50 in assay [1] is 100 to 1000 nM.
For the compound `COc1cc(C(=O)c2cc(C(N)=O)cc(-c3cccc4[nH]ccc34)c2)ccn1` [3-(1H-Indol-4-yl)-5-(2-methoxy-pyridine-4-carbonyl)-benzamide], the activation at 0.1 µM was at least 50% in assay [1] (24 h, flow cytometry (PI)) and at least 50% in assay [2] (Table 4).
Turning to `CC(=O)Nc1cc(C(=O)c2ccnc(N(C)C)c2)cc(-c2cccc3[nH]ccc23)c1` [N-[3-(2-Dimethylamino-pyridine-4-carbonyl)-5-(1H-indol-4-yl)-phenyl]-acetamide], the activation at 0.1 µM in assay [1] (24 h, flow cytometry (PI)) is at least 50%; in assay [2] (Table 4), at least 50%.
On to `CC(=O)Nc1cc(-c2cccnc2)cc(-c2cccc3[nH]ccc23)c1` [N-[3-(1H-Indol-4-yl)-5-pyridin-3-yl-phenyl]-acetamide], for which the activation at 0.1 µM is at least 50% in assay [1] (24 h, flow cytometry (PI)) and at least 50% in assay [2] (Table 4).
Consider `COC(=O)Nc1cc(C(=O)c2ccnc(Cl)c2)cc(-c2cccc3[nH]ccc23)c1` [[3-(2-Chloro-pyridine-4-carbonyl)-5-(1H-indol-4-yl)-phenyl]-carbamic acid methyl ester], for which the activation at 0.1 µM was below 50% in assay [1] (24 h, flow cytometry (PI)) and below 50% in assay [2] (Table 4). Further, in assay [1], the IC50 fell in the range of 500 to 5000 nM.
For the compound `COC(=O)Nc1cc(C(=O)c2ccnc(C)c2)cc(-c2cccc3[nH]ccc23)c1` [[3-(1H-Indol-4-yl)-5-(2-methyl-pyridine-4-carbonyl)-phenyl]-carbamic acid methyl ester], the activation at 0.1 µM in assay [1] (24 h, flow cytometry (PI)) is below 50%; in assay [2] (Table 4), at least 50%.
`CC(=O)Nc1cc(-c2ccc(F)cc2F)cc(-c2cccc3[nH]ccc23)c1` [N-[5-(1H-Indol-4-yl)-2′,4′-difluoro-biphenyl-3-yl]-acetamide]: the activation at 0.1 µM in assay [1] (24 h, flow cytometry (PI)) was at least 50%; in assay [2] (Table 4), at least 50%.
Take `COC(=O)Nc1cc(-c2ccncc2)cc(-c2cccc3[nH]ccc23)c1` [[3-(1H-Indol-4-yl)-5-pyridin-4-yl-phenyl]-carbamic acid methyl ester]: the activation at 0.1 µM in assay [1] (24 h, flow cytometry (PI)) is at least 50%; in assay [2] (Table 4) it was at least 50%.
Consider `Cc1cc(C(=O)c2cc(NS(C)(=O)=O)cc(-c3cccc4[nH]ccc34)c2)cc(N2CCOCC2)n1` [N-[3-(1H-Indol-4-yl)-5-(2-methyl-6-morpholin-4-yl-pyridine-4-carbonyl)-phenyl]-methanesulfonamide], for which the activation at 0.1 µM in assay [1] (24 h, flow cytometry (PI)) was at least 50%; in assay [2] (Table 4) it was at least 50%.
Take `CC(=O)Nc1cc(-c2ccnc(Cl)c2)cc(-c2cccc3[nH]ccc23)c1` [N-[3-(2-Chloro-pyridin-4-yl)-5-(1H-indol-4-yl)-phenyl]-acetamide]: the activation at 0.1 µM in assay [2] (Table 4) is at least 50%.
Turning to `CC(=O)Nc1cc(-c2ccc(Cl)nc2)cc(-c2cccc3[nH]ccc23)c1` [N-[3-(6-Chloro-pyridin-3-yl)-5-(1H-indol-4-yl)-phenyl]-acetamide], in assay [2] (Table 4), the activation at 0.1 µM is at least 50%.
Consider `CCOc1ccc(-c2cc(NC(C)=O)cc(-c3cccc4[nH]ccc34)c2)cn1` [N-[3-(6-Ethoxy-pyridin-3-yl)-5-(1H-indol-4-yl)-phenyl]-acetamide], for which the activation at 0.1 µM in assay [2] (Table 4) was below 50%. Moreover, the IC50 in assay [2] is 100 to 1000 nM.
For the compound `Cc1cc(C(=O)c2cc(NS(C)(=O)=O)cc(-c3cccc4[nH]ccc34)c2)cc(Cl)n1` [N-[3-(2-Chloro-6-methyl-pyridine-4-carbonyl)-5-(1H-indol-4-yl)-phenyl]-methanesulfonamide], in assay [3], the activation at 0.1 µM is at least 50%. This compound showed an activation at 1 µM in assay [4] of at least 50%.
